Where no end group is shown, it is not given here.
What was measured:
[1] = test system: HCT116, RKO, and H460a cells; assay: Real-time RT-qPCR of p21 and p53 genes in cancer cells with wild-type p53; format: cell-based; conditions: H203 for 8 h
Description: […]. […] […]. Total RNAs were extracted using a Trizol protocol with RNeasy® Mini kit from Qiagen (TX, USA). The concentration of RNAs was measured with Nanodrop-2000c. Real-time qPCR was performed with a BaldStar TaqMan One-Step RT-qPCR Kit from Biorab (Beijing, China) on a BioRad CFX96 qPCR instrument (CA, USA). The primers and probes for qPCR were designed using Primer Express 3.0 software (Applied Biosystems, USA). […]. TaqMan probes were labeled with 5′-FAM and 3′-TAMRA. All primers and probes were synthesized by GenScript (Nanjing, China). Samples were analyzed in triplicate and normalized to the control.

[2] = target: T1, N-MdmX (Homo sapiens, UniProt O15151); assay: Isothermal titration calorimetry (ITC) assay
T1 sequence (O15151 22-110): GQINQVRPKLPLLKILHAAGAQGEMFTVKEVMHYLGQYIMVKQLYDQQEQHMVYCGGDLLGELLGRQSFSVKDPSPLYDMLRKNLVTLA
Description: The protein−ligand interactions were characterized using a model ITC-200 isothermal titration microcalorimeter (Malvern, USA) at 25 °C. A typical experiment included the injection of 19 aliquots (2.0 μL each) containing an ~0.2 mM ligand solution into an ~10–20 μM protein solution in the ITC cell (volume of ∼200 μL). Titrations were performed with a stirring speed of 750 rpm and a spacing time of 120 s. A control experiment was run by injecting a ligand solution into buffer instead of a protein solution in the cell. Before data analysis, the control values were subtracted from the experimental data. The binding isotherms were integrated to give the enthalpy change (ΔH) plotted as a function of the molar ratio of the ligand. When necessary, prior to the integration procedures, the baseline was manually adjusted to minimize the background noise. The Origin 7.0-based software was used for data analysis with the one-set-of-binding-sites model. The disassociation constant of Kd was determined from the slope of the central linear part of the fractional saturation curve. The Gibbs free energy change (ΔG) and the entropy change (ΔS) were calculated on the basis of the following equations: ΔG =−RT ln Kd = ΔH − TΔS, where ΔH was derived from the original ΔH/molar ratio plots.

| Compound | transcription of the p53 gene [1] | transcription of p21 ([1]; all three cell lines) | Kd [2] [µM] |
| --- | --- | --- | --- |
| O=C1CN(C(=O)N2C(c3ccc4c(c3)N(c3ccccc3)C(=O)CNC4=O)=N[C@@H](c3ccc(Cl)cc3)[C@H]2c2ccc(Cl)cc2)CCN1 [H203] | unaffected | increased in a dose-dependent manner |  |
| WKLLPEN [p53p^ΔF19] |  |  | 20.1 ± 3.25 |

Source: article PMC8885691, “Leveraging the multivalent p53 peptide-MdmX interaction to guide the improvement of small molecule inhibitors” (Nature Communications, 2022)
